Tests used:
[1] = test system: Ischaemum rugosum (Saramollagrass, ISCRU); test: Postemergence herbicidal activity of mixtures in the field (rice small plots), visual weed control; type: in vivo; conditions: 50 g ai/ha
Description: (§1) Bispyribac was used as Nominee® 100SC or Nominee® 400SC.
(§2) As such, Colby's equation simplifies to […]

[2] = test system: Echinochloa colonum (L.) LINK (junglerice, ECHCO); test: as above; type: in vivo; conditions: 30 DAA, 52 g ai/ha
Description: as §1, §2

[3] = test system: Rottboellia exaltata (Guineafowlgrass, ROOEX); test: as above; type: in vivo; conditions: 50 g ai/ha
Description: as §1, §2

[4] = test system: Digitaria species (DIGSS); test: as above; type: in vivo; conditions: 50 g ai/ha
Description: as §1, §2

[5] = test system: Rice (Oryza Sativa, ORYSA); test: Safening activity to rice in the field, visual crop injury; conditions: 50 g ai/ha
Method: The treated plots and control plots were rated blind at various intervals after application.
Colby's equation was used to determine the herbicidal effects expected from the mixtures (Colby, S. R. Calculation of the synergistic and antagonistic response of herbicide combinations. Weeds 1967, 15, 20-22).
However, the experiments described herein were performed such that active ingredients A and B were combined and only the efficacy of the combination was determined. As such, Colby's equation simplifies to […]

COc1cc(OC)nc(Oc2cccc(Oc3nc(OC)cc(OC)n3)c2C(=O)[O-])n1.[Na+] [Bispyribac-Sodium, sodium 2,6-bis((4,6-dimethoxypyrimidin-2-yl)oxy)benzoate]
Percent (%) Visual Control ([1]; 6 DAA): 0% | Percent (%) Visual Control ([1]; 12 DAA): 30% | Percent (%) Visual Control ([1]; 16 DAA): 46.8% | Percent (%) Visual Control ([1]; 17 DAA): 0% | Percent (%) Visual Control ([1]; 27 DAA): 9.25% | Percent (%) Visual Control ([1]; 32 DAA): 0% | Percent (%) Visual Control ([1]; 40 DAA): 0% | Percent (%) Visual Control [2]: 86.25% | Percent (%) Visual Control ([3]; 16 DAA): 87.3% | Percent (%) Visual Control ([3]; 32 DAA): 69.5% | Percent (%) Visual Control ([4]; 6 DAA): 93% | Percent (%) Visual Control ([4]; 17 DAA): 88% | Percent (%) Crop Injury ([5]; 6 DAA): 2.2% | Percent (%) Crop Injury ([5]; 17 DAA): 0.9% | Percent (%) Crop Injury ([5]; 27 DAA): 3%
